Where a SMILES comes first, the peptide text is derived from it. [ ]: non-standard residue; d: D form. The star is where a group is joined. Phe(4-NO2) = N[C@@H](Cc1ccc([N+](=O)[O-])cc1)C(=O)O; Dansyl = CN(C)c1cccc2c(S(=O)(=O)*)cccc12
Target: T1, Enkephalinase (endopeptidase-24.11) partially purified from rat kidney (Rattus norvegicus, UniProt P07861)
T1 construct: Enkephalinase is partially purified from rat kidney; from tissue; host or cells: rat kidney, microvilli fraction
T1 sequence (P07861 1-750): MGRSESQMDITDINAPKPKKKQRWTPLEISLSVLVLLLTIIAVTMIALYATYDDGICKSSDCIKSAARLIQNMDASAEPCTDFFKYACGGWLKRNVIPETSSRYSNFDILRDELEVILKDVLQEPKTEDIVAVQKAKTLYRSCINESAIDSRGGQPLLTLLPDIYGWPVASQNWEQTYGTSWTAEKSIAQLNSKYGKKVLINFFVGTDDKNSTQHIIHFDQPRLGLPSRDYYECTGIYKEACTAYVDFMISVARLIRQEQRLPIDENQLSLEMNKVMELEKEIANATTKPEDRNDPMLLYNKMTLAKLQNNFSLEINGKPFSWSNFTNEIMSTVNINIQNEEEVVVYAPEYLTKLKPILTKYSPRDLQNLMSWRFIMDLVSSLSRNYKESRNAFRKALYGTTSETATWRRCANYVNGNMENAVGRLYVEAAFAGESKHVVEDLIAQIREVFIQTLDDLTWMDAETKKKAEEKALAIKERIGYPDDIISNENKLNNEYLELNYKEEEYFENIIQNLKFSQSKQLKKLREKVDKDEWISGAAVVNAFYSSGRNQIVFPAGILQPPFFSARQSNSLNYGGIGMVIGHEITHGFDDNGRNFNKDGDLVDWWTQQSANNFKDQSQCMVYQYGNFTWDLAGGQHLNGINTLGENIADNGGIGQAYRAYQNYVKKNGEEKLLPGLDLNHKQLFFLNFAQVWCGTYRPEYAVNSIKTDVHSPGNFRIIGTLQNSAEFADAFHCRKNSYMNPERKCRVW
Test: Enkephalinase fluorometric assay with substrate dansyl-D-AlaGly(p-nitro)PheGly
Type: biochemical
Settings: substrate of enkephalinase; 50 mM HEPES buffer pH 7.4, 25° C.
Excerpt: Enkephalinase is partially purified from rat kidney. The enzyme is extracted from the microvilli fraction by using Triton X-100 according to the method of Malfroy and Schwartz [J. Biol. Chem. 259, 14365-14370 (1984)] or by using a proteolytic treatment according to the method of Almenoff and Orlowski [Biochem. 22, 590-599 (1983)]. The enzyme is further purified by anion exchange chromatography (Mono Q™ column, Pharmacia) using a Pharmacia FPLC system. The enzyme activity may be measured by the fluorometric methods of Florentin et al. [Anal. Biochem. 141, 62-69 (1984)] or of Almenoff and Orlowski [J. Neurochemistry 42, 151-157 (1984)]. The enzyme is assayed in 50 mM HEPES buffer (pH 7.4) in a 3.0 mL reaction volume containing 12 μM of the substrate dansyl-D-AlaGly(p-nitro)PheGly (Km =40 μM) at 25° C. The substrate (and inhibitor) is added from a concentrated stock solution in DMSO (up to 0.1 mL DMSO final volume). The enzyme in a small volume (approximately 0.1 μg of FPLC purified protein) is added to initiate the reaction and the rate of fluorescence increase is recorded continuously using a fluorometer (excitation at 339 nm, emission at 562 nm).

C[C@@H](NS(=O)(=O)c1cccc2c(N(C)C)cccc12)C(=O)NCC(=O)N[C@@H](Cc1ccc([N+](=O)[O-])cc1)C(=O)NCC(=O)O [dansyl-D-AlaGly(p-nitro)PheGly] (Dansyl-[dA]G[Phe(4-NO2)]G-OH)
Km: 40 µM

Source: patent publication US5635502A, “Mercaptoacetylamide bicyclic lactam derivatives useful as inhibitors of enkephalinase and ACE” (Merrell Pharmaceuticals Inc., priority 1995, dated 1997)
